Measurements from ChEMBL document CHEMBL1144231, “Discovery of pyrimidine benzimidazoles as Lck inhibitors: part I” (Bioorg Med Chem Lett, 2008).

biological target: Tyrosine-protein kinase Lck (Homo sapiens, UniProt P06239); assay: Inhibition of Lck by lance assay
Sequence (P06239 whole entry): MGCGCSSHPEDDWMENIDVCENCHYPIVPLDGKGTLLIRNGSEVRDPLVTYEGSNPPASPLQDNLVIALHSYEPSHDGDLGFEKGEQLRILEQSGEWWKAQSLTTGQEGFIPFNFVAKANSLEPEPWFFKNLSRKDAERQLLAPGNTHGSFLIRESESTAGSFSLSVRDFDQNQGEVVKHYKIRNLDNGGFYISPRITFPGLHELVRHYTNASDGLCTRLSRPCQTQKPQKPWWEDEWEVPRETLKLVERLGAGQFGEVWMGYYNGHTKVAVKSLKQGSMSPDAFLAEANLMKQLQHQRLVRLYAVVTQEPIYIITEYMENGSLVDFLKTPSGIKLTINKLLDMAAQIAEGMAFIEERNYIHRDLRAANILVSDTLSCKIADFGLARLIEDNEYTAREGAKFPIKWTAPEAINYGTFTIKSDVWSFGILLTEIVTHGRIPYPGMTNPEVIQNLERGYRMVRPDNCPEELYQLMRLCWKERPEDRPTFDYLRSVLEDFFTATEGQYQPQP

Question: Which IC50 does the source give for Cc1nc(Nc2cc(-n3c(Nc4c(C)cccc4Cl)nc4ccccc43)ncn2)cc(N2CCN(CCO)CC2)n1 here?
Answer: 25 nM

Question: How did the IC50 turn out when Cc1cccc(Cl)c1Nc1nc2ccccc2n1-c1cc(Nc2ncnc(NCCN3CCOCC3)c2C)ncn1 was run?
Answer: 119 nM

Question: How did the IC50 turn out when Cc1nc(NCCN2CCOCC2)cc(Nc2cc(-n3c(Nc4c(C)cccc4Cl)nc4ccccc43)ncn2)n1 was run?
Answer: 5 nM

Question: Which IC50 does the source give for Cc1cccc(Cl)c1Nc1nc2ccccc2n1-c1cc(Nc2ccc(CCN3CCOCC3)cn2)ncn1 here?
Answer: 31 nM

Question: For Cc1cccc(Cl)c1Nc1nc2ccccc2n1-c1cc(Cl)ncn1, which IC50 is on record?
Answer: > 2500 nM

Question: Cc1cccc(Cl)c1Nc1nc2ccccc2n1-c1cc(Nc2cc(CN3CCOCC3)ccn2)ncn1 was tested. Which IC50 did it give?
Answer: 14 nM

Question: How did the IC50 turn out when Cc1cccc(Cl)c1Nc1nc2ccccc2n1-c1cc(NN2CCOCC2)ncn1 was run?
Answer: > 2500 nM

Question: Which IC50 does the source give for CCN(CC)CCCCNc1cc(-n2c(Nc3c(C)cccc3Cl)nc3ccccc32)ncn1 here?
Answer: 789 nM

Question: Which IC50 does the source give for Cc1cc(C)c(Nc2nc3ccccc3n2-c2cc(N)ncn2)c(Br)c1 here?
Answer: 1360 nM

Question: For Cc1cc(C)c(Nc2nc3ccccc3n2-c2cc(N)ncn2)c(C)c1, which IC50 is on record?
Answer: 1780 nM

Question: With Cc1cccc(Cl)c1Nc1nc2ccccc2n1-c1ccncn1 as the compound, how does the IC50 read?
Answer: 2090 nM

Question: Which IC50 does the source give for Cc1cccc(Cl)c1Nc1nc2ccccc2n1-c1cc(N2CCOCC2)ncn1 here?
Answer: > 2500 nM

Question: Which IC50 does the source give for Cc1cccc(Cl)c1Nc1nc2ccccc2n1-c1cc(N)ncn1 here?
Answer: 514 nM
